Results published in ChEMBL document CHEMBL1201862, “PubChem BioAssay data set” (2004).
“And” between values parts separate entries of the source, which are not always exact repeats. Equal entries are not always repeated. The source made the active and inactive calls.

Columns and labels:
[1] = biological target: T1, Trace amine-associated receptor 1 (Homo sapiens, UniProt Q96RJ0); assay: Counterscreen for agonists of the human trace amine associated receptor 1 (hTAAR1): Fluorescence-based cell-based high throughput dose response assay to identify hTAAR1 agonist that also desensitize TAAR1 receptor response.; type: functional
T1 sequence (Q96RJ0 whole entry): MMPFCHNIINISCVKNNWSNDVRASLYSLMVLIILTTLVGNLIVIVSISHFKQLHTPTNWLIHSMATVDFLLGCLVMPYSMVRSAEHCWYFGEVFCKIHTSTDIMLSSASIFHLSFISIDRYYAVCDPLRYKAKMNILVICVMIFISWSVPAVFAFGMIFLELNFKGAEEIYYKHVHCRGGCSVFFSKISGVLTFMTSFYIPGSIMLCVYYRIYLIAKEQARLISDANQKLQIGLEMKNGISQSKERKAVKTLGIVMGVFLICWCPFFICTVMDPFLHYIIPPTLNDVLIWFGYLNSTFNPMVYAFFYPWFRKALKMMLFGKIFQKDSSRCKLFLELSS

[2] = biological target: T1, Trace amine-associated receptor 1; assay: Fluorescence-based cell-based high throughput dose response assay to identify agonists of the human trace amine associated receptor 1 (TAAR1).; type: functional
cells [3] = type: functional, cell-based
cells [4] = type: functional, cell-based; remark: listed apart in the source
[5] = HGIII-sPLA2 enzyme inhibition potency – biochemical, QFRET, IC50, dose response (AID 743457);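 note: green fluorescence rise as the enzyme cleaves BODIPY PC-A2 in liposomes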
HEK293 = assay: EBV LMP1 TES2 canonical NF-kB signalling blockers – cell-based, HEK293, luciferase, cherry-pick, dose response (AID 588343); type: functional; conditions: Homo sapiens
[6] = biological target: T2, Scavenger receptor class B member 1 (Mus musculus, UniProt Q61009); assay: blockers of DiI-HDL lipid transfer via SR-BI – cell-based, ldlA[mSR-BI] CHO, DiI fluorescence, dry powder, set 10, dose response (AID 624029); type: functional
T2 sequence (Q61009 whole entry): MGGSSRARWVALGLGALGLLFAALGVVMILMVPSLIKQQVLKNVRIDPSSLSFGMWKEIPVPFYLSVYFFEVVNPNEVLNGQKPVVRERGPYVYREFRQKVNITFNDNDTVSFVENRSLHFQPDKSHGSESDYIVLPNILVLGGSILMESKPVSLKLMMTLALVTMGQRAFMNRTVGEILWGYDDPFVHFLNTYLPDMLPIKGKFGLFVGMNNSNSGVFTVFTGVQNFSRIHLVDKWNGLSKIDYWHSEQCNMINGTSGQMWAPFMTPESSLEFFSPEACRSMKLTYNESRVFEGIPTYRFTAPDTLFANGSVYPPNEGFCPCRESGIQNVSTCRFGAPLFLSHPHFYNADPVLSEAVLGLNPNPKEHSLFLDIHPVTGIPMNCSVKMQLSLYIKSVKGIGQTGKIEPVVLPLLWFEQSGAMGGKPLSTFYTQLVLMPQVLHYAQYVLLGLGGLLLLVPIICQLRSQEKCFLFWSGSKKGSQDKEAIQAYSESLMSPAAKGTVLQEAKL

[7] = biological target: T2, Scavenger receptor class B member 1; assay: mouse SR-BI DiI-HDL transfer blockers – ldlA[mSR-BI] CHO cells, fluorescence plate reader, dry powder, set 9, dose response (AID 623880); type: functional, cell-based
fMet-Leu-Phe receptor = fMet-Leu-Phe receptor (Homo sapiens, UniProt P21462); assay: formyl peptide receptor binders – dose response (AID 519); type: functional
Cytochrome P450 2D6 = Cytochrome P450 2D6 (Homo sapiens, UniProt P10635);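 note: CYP2D6 member of a cytochrome P450 panel assay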
[8] = biological target: T3, Oxysterols receptor LXR-beta (Homo sapiens, UniProt P55055); type: functional, cell-based;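 note: agonist activity at LXR measured by a cell-based luminescence readout across a dose range, run as a counterscreen for daf-12 agonists; HEK293 cells with Gal4-LXR fusion and GAL4-driven luciferase reporter; potency for activation of Gal4-LXR reporter so compounds are agonists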
T3 sequence (P55055 whole entry): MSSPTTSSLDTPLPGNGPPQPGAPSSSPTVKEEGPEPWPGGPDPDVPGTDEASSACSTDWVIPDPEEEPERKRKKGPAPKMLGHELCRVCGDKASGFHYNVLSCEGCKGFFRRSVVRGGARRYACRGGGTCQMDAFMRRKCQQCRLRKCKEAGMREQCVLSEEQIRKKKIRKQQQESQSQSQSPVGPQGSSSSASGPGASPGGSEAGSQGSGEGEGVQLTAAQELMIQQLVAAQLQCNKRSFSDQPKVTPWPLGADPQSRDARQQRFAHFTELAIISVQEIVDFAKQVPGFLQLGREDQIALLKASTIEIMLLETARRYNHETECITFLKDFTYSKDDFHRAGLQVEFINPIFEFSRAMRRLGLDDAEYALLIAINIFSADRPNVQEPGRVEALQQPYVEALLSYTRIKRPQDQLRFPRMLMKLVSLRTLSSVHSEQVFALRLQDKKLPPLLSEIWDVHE

[9] = viability loss in CEM21 cells – cell-based, CellTiter-Glo luminescence, cherry-picked, cytotoxicity control for viral fusion inhibitor project, dose response (AID 652042); type: functional;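 note: potency for signal decrease meaning cytotoxicity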
cells [10] = assay: cells
Major prion protein = Major prion protein (Homo sapiens, UniProt P04156); type: functional, cell-based
[11] = biological target: T4, Nuclear receptor subfamily 0 group B member 1 (Homo sapiens, UniProt P51843); type: functional, cell-based;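 note: HEK293T cells transfected with SF-1 and DAX-1 plus StAR promoter luciferase reporter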
T4 sequence (P51843 whole entry): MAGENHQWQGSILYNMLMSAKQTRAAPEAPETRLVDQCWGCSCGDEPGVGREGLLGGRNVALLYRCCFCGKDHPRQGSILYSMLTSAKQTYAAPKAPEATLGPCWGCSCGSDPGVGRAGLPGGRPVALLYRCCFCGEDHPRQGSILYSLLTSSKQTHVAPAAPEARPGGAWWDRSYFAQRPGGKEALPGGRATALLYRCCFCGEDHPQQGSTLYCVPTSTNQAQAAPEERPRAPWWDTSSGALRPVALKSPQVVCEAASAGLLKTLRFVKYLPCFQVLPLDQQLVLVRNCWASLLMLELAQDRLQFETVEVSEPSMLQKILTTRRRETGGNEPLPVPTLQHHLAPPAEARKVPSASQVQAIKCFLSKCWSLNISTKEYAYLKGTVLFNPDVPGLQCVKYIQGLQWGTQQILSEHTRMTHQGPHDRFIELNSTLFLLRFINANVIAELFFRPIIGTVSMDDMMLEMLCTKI

cells [12] = type: functional, cell-based; remark: listed apart in the source
[13] = viability of uninfected HEp-2 cells – cell-based, HTS, cytotoxicity control for RSV inhibitor project, dose response (AID 2410); type: functional; conditions: human respiratory syncytial virus
[14] = biological target: 1-phosphatidylinositol 4,5-bisphosphate phosphodiesterase beta-3 (Homo sapiens, UniProt Q01970); assay: Fluorescence-based biochemical high throughput dose response assay to identify inhibitors of phospholipase C isozymes (PLC-B3).
[15] = biological target: 1-phosphatidylinositol 4,5-bisphosphate phosphodiesterase gamma-1 (Homo sapiens, UniProt P19174); assay: Counterscreen for inhibitors of phospholipase C isozymes (PLC-B3): Fluorescence-based biochemical high throughput dose response assay to identify inhibitors of phospholipase C isozymes (PLC-gamma1).
Cytochrome P450 2C9 = Cytochrome P450 2C9 (Homo sapiens, UniProt P11712)
Cytochrome P450 1A2 = biological target: T5, Cytochrome P450 1A2 (Homo sapiens, UniProt P05177);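 note: PubChem cytochrome P450 panel assay, CYP1A2 panel member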
T5 sequence (P05177 whole entry): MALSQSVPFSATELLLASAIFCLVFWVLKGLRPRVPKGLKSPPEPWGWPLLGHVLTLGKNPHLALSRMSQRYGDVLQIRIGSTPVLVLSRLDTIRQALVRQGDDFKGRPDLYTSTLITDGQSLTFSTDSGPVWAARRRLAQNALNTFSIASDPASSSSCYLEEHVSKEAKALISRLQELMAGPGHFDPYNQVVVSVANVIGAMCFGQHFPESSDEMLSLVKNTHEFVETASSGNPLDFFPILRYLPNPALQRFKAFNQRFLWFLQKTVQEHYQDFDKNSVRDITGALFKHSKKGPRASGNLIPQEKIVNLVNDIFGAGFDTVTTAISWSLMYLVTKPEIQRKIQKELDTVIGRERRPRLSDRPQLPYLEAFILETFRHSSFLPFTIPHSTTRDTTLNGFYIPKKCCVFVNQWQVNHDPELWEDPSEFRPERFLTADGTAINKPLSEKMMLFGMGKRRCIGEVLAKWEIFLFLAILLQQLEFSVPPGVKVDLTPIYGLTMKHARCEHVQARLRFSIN

cells [16] = conditions: HEK293
[17] = HIV-1 AD8 envelope cell-cell fusion blockers – cherry-pick, dose response (AID 652062); type: functional, cell-based;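 note: luciferase signal from cell-cell fusion driven by HIV-1 clade B AD8 Env; potency is for inhibitors of fusion seen as a drop in luminescence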
[18] = off-target signal loss in HeLa-CEM21 co-culture – HeLa F-luc CTL cells, cherry-picked, counter-screen for HIV-1 Env fusion inhibitor project, dose response (AID 652040); type: functional, cell-based;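 note: potency for signal decrease marking cytotoxic or nonspecific inhibition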
[19] = blockers of HIV-1 ZM109 envelope-driven cell-cell fusion – HeLa effector, CEM target cells, luciferase, cherry-pick, dose response (AID 652058); type: functional, cell-based;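 note: luciferase signal from HIV-1 Env mediated cell-cell fusion of effector and target cells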
H4 = assay: Luminescence Cell-Based Dose Response HTS to Identify Activators of 5'UTR Stem-Loop Driven Prion Protein mRNA Translation in H4 Neuroglioblastoma Cells. [Related pubchem assays: 1829 (Project Summary), 1814 (Primary HTS)]; type: functional; conditions: Homo sapiens
[20] = Luminescence Cell-Based Dose Confirmation HTS to Identify Activators of 5'UTR Stem-Loop Driven Alpha-Synuclein mRNA Translation in H4 Neuroglioblastoma Cells. [Related pubchem assays: 1829 (Project Summary), 1814 (Primary HTS)]; type: functional
[21] = biological target: SWI/SNF-related matrix-associated actin-dependent regulator of chromatin subfamily A member 2 (Homo sapiens, UniProt P51531); assay: Luminescence-based cell-based high throughput dose response assay to identify activators of the function of SWI/SNF related, matrix associated, actin dependent regulator of chromatin, subfamily a, member 2 (SMARCA2, BRM).; type: functional
[22] = Counterscreen for activators of the function of SWI/SNF related, matrix associated, actin dependent regulator of chromatin, subfamily a, member 2 (SMARCA2, BRM): Luminescence-based cell-based high throughput dose response assay to identify non-selective compounds using the VP16 reporter assay.; type: functional
[23] = Luminescence Cell-Based Dose Response HTS to Identify Activators of Luciferase Translation or Activity in H4 […] Cells. [Related pubchem assays: 1829 (Project Summary), 1814 (Primary HTS)]; type: functional

c1ccc(CC/N=C2\CCCc3c2[nH]c2ccccc32)cc1
IC50 [1]: 0.341 µM (active)
EC50 [2]: 0.106 µM (active)
EC50 (cells [3]): > 29.9 µM (inactive)
IC50 (cells [4]): > 29.9 µM (inactive)

NC(=S)NN=Cc1nccc2c(C(F)(F)C(F)(F)C(F)(F)F)cccc12
IC50 [5]: 31.9 µM (inactive)
AC50 (HEK293): 0.643 µM (active)

CC(C)NC(=O)Nc1ccc2c(c1)C(=O)N([C@H](C)CO)C[C@@H](C)[C@H](CN(C)S(=O)(=O)c1ccc(Cl)cc1)O2
AC50 [6]: 163 nM (active) and 121 nM (active)
AC50 [7]: 0.0589 µM (active)

CCOC(=O)c1ccc(NC(=O)Nc2ccc3c4c(cccc24)C(=O)N3CC)cc1
Ki (fMet-Leu-Phe receptor): > 66.7 µM (inactive)
AC50 (Cytochrome P450 2D6): 17.8 µM (inconclusive)

CCn1cc(C(=O)NC2CCC(C)CC2)c(=O)c2cc(S(=O)(=O)N3CCCCC3)ccc21 (stereo not given)
Ki (fMet-Leu-Phe receptor): > 66.7 µM (inactive)

Brc1ccc(-c2noc(-c3ccccn3)n2)o1
EC50 [8]: > 67.5 µM (inactive)

COc1ccc(S(=O)(=O)N2CCCCC2)cc1NC(=O)CN(Cc1ccco1)Cc1ccco1
AC50 [9]: 68.8 µM (active)

CCc1nc(SCC(=O)Nc2ccc(N(C)C)cc2)c2ccccc2n1
IC50 (cells [10]): > 138 µM (inactive)
IC50 (Major prion protein): 4.47 µM (active)

Cc1ccc(NS(=O)(=O)c2cc(C(=O)NCc3ccccn3)ccc2Cl)cc1C
IC50 (cells [10]): > 138 µM (inactive)
IC50 (Major prion protein): 13 µM (inactive)

Clc1ccc(-c2nc3ccc(Br)cn3c2Cc2ccsc2)cc1
IC50 [11]: > 67.5 µM (inactive)
IC50 (cells [12]): > 67.5 µM (inactive)

Cn1ncc(Cl)c1C(=O)Nc1ccc2c(c1)CCC2
CC50 [13]: 41.5 µM (active)
IC50 [11]: > 67.5 µM (inactive)
IC50 (cells [12]): > 67.5 µM (inactive)

Cn1cccc1CNCCc1ccccc1F
IC50 [1]: 8.12 µM (active)
EC50 [2]: 1.74 µM (active)
EC50 (cells [3]): > 29.9 µM (inactive)
IC50 (cells [4]): > 29.9 µM (inactive)

O=C(NN=C(S)Nc1cccc(Cl)c1)c1ccccc1OC(F)F
IC50 [5]: > 122 µM (inactive)

Cc1cc(NC(=O)c2ccc3c(c2)OCO3)ccc1NC(=O)c1ccccc1
IC50 [14]: > 122 µM (inactive)
IC50 [15]: > 122 µM (inactive)

O=C(C[S+]([O-])c1cccc(Cl)c1)Nc1ccccc1Cl (stereo not given)
IC50 [14]: > 122 µM (inactive)
AC50 (Cytochrome P450 2C9): inconclusive
AC50 (Cytochrome P450 1A2): 15.8 µM (inconclusive)
IC50 [15]: > 122 µM (inactive)

COc1cc(/C=C(\C#N)C(=O)NC(C)C)cc(Cl)c1O
AC50 (cells [16]): 50.3 µM (active)

N=c1nc2n(cc1F)C1OC(CO)C(O)C1O2 (stereo not given)
AC50 [17]: 0.699 µM (active)
AC50 [18]: < 0.26 µM (active)
AC50 [9]: 17.9 µM (active)
AC50 [19]: < 0.26 µM (active)

O=C(CNS(=O)(=O)c1ccccc1)OCC(=O)c1ccc(OC(=O)c2ccccc2)cc1
EC50 (H4): > 120 µM (not active)
EC50 [20]: > 120 µM (not active)
EC50 [21]: > 91.2 µM (inactive)
EC50 [22]: > 91.2 µM (inactive)
EC50 [23]: 11.7 µM (active)

C[C@H](C(=O)NC1CCCC1)N(C(=O)Cn1nnc(-c2ccc3c(c2)OCO3)n1)C1CCCCC1
AC50 [6]: 12.1 nM (active)
AC50 [7]: 0.015 µM (active)
